Test results taken from the supplement of paper PMC5579334.

Assays:
YST-1 [1] = assay: drug sensitivity score (DSS, CellTiter-Glo viability, 72 h) (DSS (dimensionless)); higher = more sensitive; extreme values may be limits of the assay
Procedure, shortened: (§1)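 After seeding 750–1000 cells per well of MPNST cell lines or primary human Schwann cells into 384-well plates preprinted with each compound at five concentrations in 10-fold steps, plates were kept 72 h at 37 °C, 5% CO2. Viability was read as CellTiter-Glo ATP luminescence relative to vehicle and positive-control wells, with duplicates averaged where present. The data were fitted with four-parameter logistic models. Drug sensitivity score and relative IC50, censored at the top concentration, derive from the fits, and percent inhibition refers to the top concentration.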

HS-Sch-2 [2] = assay: as above
Procedure, shortened: as §1

HS-PSS [3] = assay: as above
Procedure, shortened: as §1

YST-1 [4] = assay: % inhibition of CellTiter-Glo viability at highest tested concentration (72 h), relative to DMSO and benzethonium chloride controls; higher = more inhibition
Procedure, shortened: as §1

HS-Sch-2 [5] = assay: as above
Procedure, shortened: as §1

HS-PSS [6] = assay: as above
Procedure, shortened: as §1

HS-PSS [7] = assay: drug sensitivity score (DSS, CellTox-Green cytotoxicity, 72 h) (DSS (dimensionless)); higher = more cytotoxic; extreme values may be limits of the assay
Procedure, shortened: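 For 72 h at 37 °C, MPNST cell lines and primary human Schwann cells were exposed in 384-well plates to five 10-fold compound dilutions. CellTox-Green, added before seeding at a final 1:1000 dilution, gave fluorescence from DNA released by disrupted cells. Signals were scaled to vehicle and positive-control wells, cultures failing plate quality control were left out, and four-parameter logistic fits were applied. Relative IC50 and drug sensitivity score were derived from the fits, with IC50 censored at the top concentration.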

| SMILES | drug sensitivity score (YST-1 [1]) | drug sensitivity score (HS-Sch-2 [2]) | drug sensitivity score (HS-PSS [3]) | % inhibition (YST-1 [4]) [%] | % inhibition (HS-Sch-2 [5]) [%] | % inhibition (HS-PSS [6]) [%] | drug sensitivity score (HS-PSS [7]) |
| --- | --- | --- | --- | --- | --- | --- | --- |
| O=C(Nc1cccc(NC(=O)c2cccc(O)c2O)c1)c1cccc(O)c1O [MST-312] (max concentration tested 10000 nM) | 5.45 | 10.8 | 4.53 | 96.2 | 90.7 | 86.4 | 0.02 |
| O=C(O)c1ccc2c(c1)nc(Nc1cccc(Cl)c1)c1ccncc12 [Silmitasertib] (max concentration tested 10000 nM) | 6.93 | 2.47 | 4.36 | 97.4 | 52.4 | 66.2 | 0 |
| CC(=O)N(O)CCCCCNC(=O)CCC(=O)N(O)CCCCCNC(=O)CCC(=O)N(O)CCCCCN [Deferoxamine] (max concentration tested 10000 nM) | 6.36 | 10.5 | 8.62 | 78.5 | 96.3 | 89.5 | 1 |
| CCN1CCN(Cc2ccc(-c3cc4c(N[C@H](C)c5ccccc5)ncnc4[nH]3)cc2)CC1 [NVP-AEE788] (max concentration tested 2500 nM) | 1.87 | 0 | 1.04 | 22.3 | 2.96 | 22.7 | 0 |
| Cn1nnc2c(C(N)=O)ncn2c1=O [Temozolomide] (max concentration tested 100000 nM) | 0.08 | 1.67 | 0 | 11.6 | 20.4 | 8.55 | 0 |
| CCn1c(=O)c(-c2ccc(Cl)cc2Cl)cc2cnc(Nc3ccc(N4CCNCC4)c(F)c3)nc21 [FRAX486] (max concentration tested 5000 nM) | 0 | 9.15 | 3.36 | -6.01 | 47.6 | 11.5 | 0 |
| Cc1nc(=O)c2cc(CN(C)c3ccc(C(=O)N[C@@H](CCC(=O)O)C(=O)O)s3)ccc2[nH]1 [Raltitrexed] (max concentration tested 1000 nM) | 6.69 | 15.1 | 3.16 | 29.9 | 71.5 | 14.7 | 0 |
| O=C(c1ccc(/C=C/c2n[nH]c3ccccc23)cc1)N1CCNCC1 [KW-2449] (max concentration tested 2500 nM) | 2.08 | 0 | 0 | 30.9 | 0.48 | 10.1 | 0 |
| CCN1CCN(Cc2ccc(Nc3ncc(F)c(-c4cc(F)c5nc(C)n(C(C)C)c5c4)n3)nc2)CC1 [Abemaciclib] (max concentration tested 2500 nM) | 6.03 | 1.05 | 1.78 | 28.3 | 31.6 | 22 | 0.89 |
| CC(C)[C@@H](CS(=O)(=O)C(C)C)N1C(=O)[C@@](C)(CC(=O)O)C[C@H](c2cccc(Cl)c2)[C@H]1c1ccc(Cl)cc1 [AMG-232] (max concentration tested 1000 nM) | 8.01 | 0 | 0.61 | 96.6 | -6.16 | 22.4 | 0 |
| CCn1cc(-c2ccnc3[nH]c(-c4cccc(CN(C)C)c4)cc23)c(-c2ccc(NC(=O)N(C)C)cc2)n1 (max concentration tested 1000 nM) | 10.8 | 4.77 | 4.28 | 33.4 | 54 | 46.2 | 0 |
| CN(C)Cc1c(C(=O)NCCOc2ccc(C(=O)NO)cc2)oc2ccccc12 [Abexinostat] (max concentration tested 10000 nM) | 24.9 | 20.5 | 16.5 | 101 | 101 | 96.2 | 7.74 |
| CCCCC/C=C/C=C1/C(=O)C=C[C@@H]1C/C=C\CCCC(=O)O [15D-PGJ2] (max concentration tested 3000 nM) | 0 | 0.58 | 0 | -5.83 | 16.9 | 3.17 | 0 |
| COc1cccc(OCCCN)c1-c1cc(Nc2cnc(C#N)cn2)n[nH]1 [Prexasertib] (max concentration tested 10000 nM) | 22.2 | 29.9 | 6.05 | 76.3 | 88.6 | 70 | 0.01 |
| CC(C)Nc1cc(-c2c[nH]c(C(=O)N[C@H](CO)c3cccc(Cl)c3)c2)c(Cl)cn1 [Ulixertinib] (max concentration tested 10000 nM) | 3.93 | 6.76 | 2.52 | 41.1 | 68.7 | 53 | 0 |
| CO[C@H]1C(=O)[C@]2(C)[C@@H](OC)C[C@H]3OC[C@@]3(OC(C)=O)[C@H]2[C@H](OC(=O)c2ccccc2)[C@]2(O)C[C@H](OC(=O)[C@H](O)[C@@H](NC(=O)OC(C)(C)C)c3ccccc3)C(C)=C1C2(C)C [Cabazitaxel] (max concentration tested 1000 nM) | 30.7 | 33.6 | 1.5 | 74 | 93.5 | 41.5 | 0.1 |
| CN1CCN(C2CCN(C(=O)Nc3cc(Oc4ccc(NC(=O)C5(C(=O)Nc6ccc(F)cc6)CC5)c(F)c4)ccn3)CC2)CC1 [Golvatinib] (max concentration tested 2500 nM) | 1.35 | 0.68 | 0.68 | 17.2 | 19.2 | 23.6 | 0 |
| COc1cc2c(Nc3ccc(Cl)c(Cl)c3F)ncnc2cc1OC[C@H]1C[C@@H]2CN(C)C[C@@H]2C1 [XL-647] (max concentration tested 1000 nM) | 1.63 | 1.16 | 0.99 | 26.5 | 31.1 | 30.7 | 0 |
| CCCCNc1ncc(C(=O)NCc2ccc(-n3ccnc3)cc2)c(NC2CCC(O)CC2)n1 (stereo unspecified) [UNC2881] (max concentration tested 2500 nM) | 3.6 | 0 | 3.51 | 38.9 | 9.68 | 37 | 0 |
| Cc1sc2c(c1C)C(c1ccc(Cl)cc1)=N[C@@H](CC(=O)Nc1ccc(O)cc1)c1nnc(C)n1-2 [OTX015] (max concentration tested 10000 nM) | 14.5 | 14.6 | 10.7 | 69.2 | 75.4 | 59.5 | 0 |
| Cc1c(C(=O)Nc2ccc(N3C[C@@H](C)O[C@@H](C)C3)nc2)cccc1-c1ccc(OC(F)(F)F)cc1 [Sonidegib] (max concentration tested 10000 nM) | 0 | 1.21 | 3.23 | 8.09 | 22.7 | 30.6 | 0 |
| CC(=O)NCC(=O)N1[C@@H]2CC[C@H]1c1ccc(Nc3ncc(C(F)(F)F)c(NC4CCC4)n3)cc12 (max concentration tested 10000 nM) | 10.5 | 11.5 | 9.91 | 82.8 | 99.3 | 87.8 | 1.86 |
| CCS(=O)(=O)N1CCN(c2ccc(Nc3ncc(C(N)=O)c(NC4CC4)n3)cc2)CC1 [Cerdulatinib] (max concentration tested 10000 nM) | 0 | 4.87 | 3.47 | -4.68 | 58.9 | 40.3 | 0 |
| Cc1ccc2nc(CN(CCN(Cc3nc4ccc(C)cc4[nH]3)Cc3nc4ccc(C)cc4[nH]3)Cc3nc4ccc(C)cc4[nH]3)[nH]c2c1 (max concentration tested 50000 nM) | 6.33 | 7.29 | 7.02 | 67.5 | 80.3 | 74.3 | 0.03 |
| N#Cc1c(Oc2ccc(F)c(NC(=O)Cc3cccc(C(F)(F)F)c3)c2)ccc2nc(NC(=O)C3CC3)sc12 [TAK-632] (max concentration tested 10000 nM) | 0 | 1.14 | 1.38 | 10.2 | 32.1 | 37.5 | 0 |
| Cc1ccc(NC(=O)c2ccc(CN3CC[C@H](N(C)C)C3)c(C(F)(F)F)c2)cc1Nc1nccc(-c2cncnc2)n1 [Bafetinib] (max concentration tested 1000 nM) | 1.49 | 0.33 | 0 | 28.5 | 16.8 | -10.6 | 0 |
| CCCOc1ccn2c(C(C)=O)cc(-c3ccccc3S(C)(=O)=O)c2c1 [GSK2801] (max concentration tested 10000 nM) | 0 | 0 | 0 | 0.58 | -6.2 | 0.71 | 0 |
| CCOc1ccn(-c2ccc(F)cc2)c(=O)c1C(=O)Nc1ccc(Oc2ccnc(N)c2Cl)c(F)c1 (max concentration tested 2500 nM) | 0 | 0 | 1.43 | 2.08 | 4.22 | 15.6 | 0 |
